Legend:
[1] = Anti-odor effect: ex-vivo olfactory evaluation test on incubated sweat
Experimental: The deodorant activity was evaluated in the ex-vivo olfactory evaluation test, on incubated sweat.
Each compound under evaluation was introduced at a rate of 0.3 mg into 1 mL of sweat. The compounds under evaluation were weighed in 25 or 30 mL pill bottles and 1 mL from a pool of fresh sweat was then added. The pill bottles were hermetically sealed and placed in an incubator at 35° C. for 24 hours. After being removed from the incubator, the pill bottles were opened and allowed to cool to ambient temperature.
A panel of sixteen people performed an olfactory analysis of each pill bottle. The efficacy of each compound evaluated was determined in comparison to a negative control (incubated sweat alone).

[2] = test system: Corynebacterium xerosis; assay: Effect on Corynebacterium xerosis: growth inhibition in microplate, MIC; type: cell-based
Experimental: • Test principle: contacting of decreasing concentrations of compounds under evaluation with an identical inoculum of microorganisms in a culture medium suitable for the growth of C. xerosis.
The dilutions of the compounds under evaluation are performed in agar at 1:1000, making it possible, for dispersible compounds under evaluation, to do away with the use of a solvent which could introduce bias in the evaluation of the compounds. The concentration range chosen was: 1%, 0.3%, 0.03% and 0.003%. Each concentration was tested in triplicate.
To ensure that the potential inhibitory activity was not associated with a pH effect, the pH of the culture medium was verified at the end of incubation.
The compound mixtures M0 and M2 were evaluated based on this protocol, along with n-octanoyl-5-salicylic acid (comparison).

CCCCCCCC(=O)c1ccc(O)c(C(=O)O)c1 [N-octanoyl-5-salicylic acid, n-octanoyl-5-salicylic acid]
% Variation incubated sweat intensity ([1]; 0.3 mg in 1 mL of sweat, 35° C. for 24 hours, panel of sixteen people, vs incubated sweat alone): −57% | unpleasant odor of incubated sweat (result in words) ([1]; same protocol as Table 2): reduce the unpleasant odor of incubated sweat | MIC C. xerosis ([2]; incubation 24 to 48 hours, Optical Density 620 nm vs growth control, range tested 1%, 0.3%, 0.03%, 0.003%, triplicate): <0.003% | growth of C. xerosis (result in words) ([2]; same protocol as Table 1): inhibit the growth of C. xerosis

Source: patent publication US20160287497A1, “USE AS A DEODORANT AGENT OF A SALIFIED SALICYLIC ACID DERIVATIVE, ALONE OR IN A MIXTURE” (L'OREAL, priority 2013, published 2016)
